# Tested on: H460 tumour-bearing nude mice
# Experiment: In vivo antitumor efficacy and safety of treatment
# Parameters: species or system mouse
# Conditions: five times, n = 5
# From the text: Data are presented as mean ± s.d.
# (1 picture or pasted object on this page, not shown here)
compound,measurement,setting,value
"COc1cccc2c1C(=O)c1c(O)c3c(c(O)c1C2=O)C[C@@](O)(C(=O)CO)C[C@@H]3O[C@H]1C[C@H](N)[C@H](O)[C@H](C)O1 [DOX, doxorubicin]",mean tumour volume after 14 days,"i.v. DOX dose 2.0 mg/kg, once every other day",854 mm^3
same,median survival time,"i.v. identical DOX dose 2.0 mg/kg, Kaplan–Meier",12 days
